Laboratory results reported in article PMC9228152, “New Amino Naphthoquinone Derivatives as Anti-Trypanosoma cruzi Agents Targeting Trypanothione Reductase” (Pharmaceutics, 2022).
Like-named read-outs stand apart in the source and are kept apart here. Each block holds one compound with its values, some of them ahead of it.

Experiments:
[1] = system: trypomastigote cultures (Y strain); design: method as in PMID 28215783; details: cited from earlier work
[2] = system: NINOA strain of T. cruzi trypomastigotes; design: method as in PMID 31709599; details: cited from earlier work
[3] = system: J774 cells; design: method as in PMID 31709599; details: cited from earlier work
[4] = system: epimastigotes of the Tulahuén strain; design: method as in PMID 25127463; details: read-out: IC50 against epimastigotes of the Tulahuén strain; cited from earlier work
[5] = system: Y strain of T. cruzi epimastigote; design: method as in doi:10.1039/C5RA10122K; details: read-out: IC50 against Y strain of T. cruzi epimastigote; cited from earlier work
[6] = system: T. cruzi epimastigotes, INC-5 strain; assay: Growth inhibition of T. cruzi epimastigotes, INC-5 strain; format: cell-based, Trypanosoma cruzi; details: epimastigotes, INC-5 strain, five days, means of three independent experiments, read-out: Epi INC-5 IC50
Method: (§1) Epimastigotes from T. cruzi strains NINOA and INC-5 were cultured in BHI (brain heart infusion broth, 89%) axenic medium, as reported in [26], at an initial concentration of 1 × 10^6 parasites/mL, at 28 °C, supplemented with 10% foetal bovine serum and 1% sodium penicillin-streptomycin. […] On the last day, the absorbance of the cultures was measured and related to the control. All measurements were carried out in triplicate. No toxic effect was attributable to DMSO. Since parasite growth is exponential, the data were analysed according to a first order equation, and the respective growth constant (k), corresponding to the slope, was calculated for controls and parasites treated with different drug concentrations. From these measurements, percentage growth inhibition (%GI) and half-maximal inhibitory concentration (IC50) values were calculated.

[7] = system: T. cruzi trypomastigotes, INC-5 strain; assay: microbe, parasite or virus in culture; format: cell-based; details: Trypanosoma cruzi; bloodstream trypomastigotes, INC-5 strain; 24 h at 4 °C; read-out: Trypo INC-5 LC50 (half-maximal lytic concentration)
Method: (§2) Those compounds with the lowest IC50 values in the epimastigote studies of each strain were evaluated in trypomastigotes. For this purpose, bloodstream trypomastigotes of INC-5 and NINOA strains were used for peritoneal injection into 6−8-week-old CD1 mice. The peak of parasitemia was achieved after 4–6 weeks, at which time parasitised blood samples were obtained by cardiac puncture using sodium heparin as an anticoagulant and diluted to a concentration of 1 × 10^6 trypomastigotes/mL. 10 µL of each of the dilutions of the study compounds and Bzn, with these being placed in a 96-well plate, and 90 µL of infected blood was added, providing a final volume of 100 µL per well. The microplates were incubated at 4 °C for 24 h, and concentrations of 20 µM, 10 µM, and 5 µM of each compound were considered in these experiments. Each evaluation was performed in triplicate. Wells with untreated blood trypomastigotes were used as a negative lysis control and Bzn as a positive control. Then, the degree of lysis of trypomastigotes was determined by their reduction in number using an optical microscope according to the Brener–Pizzi method. For this purpose, 5 μL of blood was placed between a slide and a 13 × 13 coverslip. Mobile trypomastigotes were counted in 15 microscope fields at 40× magnification. Quantification of the degree of lysis for each case was expressed as a percentage considering the number of viable trypomastigotes with respect to the negative control. The half-maximal lytic concentration (LC50) was determined by linear regression. The experiments were carried out in accordance with the recommendations and approval of the local Ethics and Research Committee (Approval number: ENCB/CEI/078/2020).

[8] = system: T. cruzi trypomastigotes, NINOA strain; assay: microbe, parasite or virus in culture; format: cell-based; details: Trypanosoma cruzi; bloodstream trypomastigotes, NINOA strain; 24 h at 4 °C; read-out: Trypo NINOA LC50 (half-maximal lytic concentration)
Method: as §2

[9] = system: J774 murine macrophages; assay: Cytotoxicity on J774 macrophages (MTT); format: cell-based; details: J774 macrophages, MTT, 24 h, read-out: J774 IC50
Method: Cytotoxicity assays for the compounds selected for their trypanocidal activity were performed on J774 macrophage cells using the MTT method. For this purpose, 50,000 cells/well resuspended in RPMI medium and 2% foetal bovine serum were seeded in a 96-well plate and incubated for 24 h at 37 °C. […] After 24 h of incubation, the existing culture medium was replaced in the plate with fresh culture medium along with […] each of the compound dilutions (100 to 1.25 μM) and Bzn to a final volume of 100 µL per well. This plate was then incubated in 5% CO2 for 24 h at 37 °C. The controls used were cells with medium as a positive control and cells without culture medium as a negative control. After the 24 h incubation, the morphology of the macrophages was observed under a microscope and then the culture medium was removed again and the MTT solution (5 mg/mL) was added. After 1 h incubation at 37 °C, the absorbance at 570 nm was recorded on an Elisa Epoch reader. The following formula was used to calculate the % cytotoxicity: %cytotoxicity = (100 − (mean number of cells with treatment/cells without treatment) × 100).

[10] = molecular target: recombinant TcTR (Trypanosoma cruzi, UniProt P28593); assay: Trypanothione reductase inhibition assay (TS2-dependent NADPH oxidation); format: biochemical; details: for Ki: mixed-type inhibition, global nonlinear regression
Sequence of recombinant TcTR (P28593 whole entry): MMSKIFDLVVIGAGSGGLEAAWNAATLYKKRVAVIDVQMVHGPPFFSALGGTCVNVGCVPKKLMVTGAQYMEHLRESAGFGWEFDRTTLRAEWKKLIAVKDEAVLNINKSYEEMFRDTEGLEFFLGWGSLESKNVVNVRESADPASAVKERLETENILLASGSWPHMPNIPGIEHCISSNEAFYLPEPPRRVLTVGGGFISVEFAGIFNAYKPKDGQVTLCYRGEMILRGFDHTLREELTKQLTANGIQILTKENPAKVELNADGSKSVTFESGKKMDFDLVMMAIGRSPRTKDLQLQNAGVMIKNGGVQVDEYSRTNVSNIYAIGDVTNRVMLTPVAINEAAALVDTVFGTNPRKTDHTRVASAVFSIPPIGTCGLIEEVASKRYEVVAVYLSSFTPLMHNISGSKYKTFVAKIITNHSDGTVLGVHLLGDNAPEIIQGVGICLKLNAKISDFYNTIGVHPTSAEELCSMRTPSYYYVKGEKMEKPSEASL
Method: The inhibition of TcTR activity by 7j was evaluated by monitoring the trypanothione disulphide (TS2)-dependent NADPH oxidation by using the assay described before. The reaction mixture contained assay buffer (40 mM HEPES pH 7.4, 1 mM EDTA), recombinant TcTR (88-168 ng/mL), NADPH (the concentration depended on experiment), and different 7j concentrations when required, in a volume of 500 μL. The mixture was incubated at 37 °C for 3 min, and TS2 was added to start the reaction. The absorbance at 340 nm was recorded in real time for 10 min, and the activity was calculated from the slope of the curves as μmol of NADPH oxidised per min (e^340 = 6.22 mM^−1 cm^−1).

[11] = system: T. cruzi trypomastigotes; design: method as in PMID 30670432; details: cited from earlier work
[12] = system: T. cruzi epimastigotes, NINOA strain; assay: Growth inhibition of T. cruzi epimastigotes, NINOA strain; format: cell-based; details: Trypanosoma cruzi, 120 h, epimastigotes, NINOA strain; five days; means of three independent experiments; read-out: Epi NINOA IC50
Method: as §1

[13] = alpha of the mixed-type inhibitor equation, replots of slope and 1/v axis intercept vs. 7j

SMILES: Clc1ccc2nccc(NCCN3CCOCC3)c2c1 [V]
IC50 [1]: 67.7 µM

SMILES: Cc1ccc(OC2=C(Cl)C(=O)c3ccccc3C2=O)cc1[N+](=O)[O-] [III]
IC50 [2]: 9.38 µM
IC50 [3]: 117 µM

SMILES: CCCCCCOc1ccc(NC2=CC(=O)c3ccccc3C2=O)cc1 [I]
IC50 [4]: 1.72 µM

SMILES: O=C1C=C(Oc2cccc([N+](=O)[O-])c2)C(=O)c2ccccc21 [II, 2-(3-nitrophenoxy)-1,4-naphthoquinone]
IC50 [5]: 0.02 µM

IC50 ([6]; Trypanosoma cruzi, 120 h): < 1 µM
IC50 [6]: 0.92 ± 0.01 µM
α NADPH [10, 13]: 1.12
α TS2 [10, 13]: 0.77
Ki ([10]; NADPH varied, TS2 fixed 200 µM, read-out: Ki 7j vs. NADPH): 18 ± 3.5 µM
Ki ([10]; TS2 varied, NADPH fixed 160 µM, read-out: Ki 7j vs. TS2): 28 ± 4.5 µM
Type of enzyme inhibition ([10]; with respect to both substrates, TS2 and NADPH, Lineweaver-Burk plots): simple mixed-type inhibitor
SMILES: O=C1C(Cl)=C(N2CCC(NC(=O)c3cccc4ccccc34)CC2)C(=O)c2ccccc21 [Compound 7j, N-(1-(3-chloro-1,4-dioxo-1,4-dihydronaphthalen-2-yl)piperidin-4-yl)-1-naphthamide]
LC50 [7]: 59.7 ± 3.72 µM
LC50 [8]: 98.1 ± 8.9 µM
IC50 [9]: 33 µM
IC50 ([9]; Mus musculus, J774, 24 h): ~25 µM

SMILES: O=C(Nc1nc(-c2ccccc2)c[nH]1)N1CCN(c2ccc(C(F)(F)F)cc2[N+](=O)[O-])CC1 [VI]
IC50 [11]: 2.2 µM

IC50 [12]: 8.21 ± 1.8 µM
IC50 ([6]; Trypanosoma cruzi, 120 h): 42.3 ± 5.8 µM
SMILES: O=C(Cn1ccnc1[N+](=O)[O-])NCc1ccccc1 [Bzn, benznidazole, reference compound]
LC50 [7]: 85.6 ± 4.23 µM
LC50 [8]: > 100 µM
IC50 ([9]; Mus musculus, J774, 24 h): 352 µM
IC50 [2]: 40.7 µM
IC50 [3]: 352 µM
